Data: patent publication US4684645A, “Benzofused lactams as cholecystokinin antagonists” (Merck & Co., Inc., priority 1985, dated 1987)

Assays:
[1] = test system: CCK receptor (pancreas); assay: CCK Receptor Binding (Pancreas), 125I-CCK-33; parameters: species or system rat (male Sprague-Dawley); details: added as protease inhibitors; binding assay buffer
Experimental: (§1) CCK-33 was radiolabeled with ^125 I-Bolton Hunter reagent (2000 Ci/mmole) as described by Sankara et al. (J. Biol. Chem. 254: 9349-9351, 1979). Receptor binding was performed according to Innis and Snyder (Proc. Natl. Acad. Sci. 77: 6917-6921, 1980) with the minor modification of adding the additional protease inhibitors, phenylmethane sulfonyl fluoride and o-phenanthroline. The latter two compounds have no effect on the ^125 I-CCK receptor binding assay.
(§2) Male Sprague-Dawley rats (200-350 g) were sacrificed by decapitation. The whole pancreas was dissected free of fat tissue and was homogenized in 20 volumes of ice-cold 50 mM, Tris HCl (pH 7.7 at 25° C.) with a Brinkmann Polytron PT 10. The homogenates were centrifuged at 48,000 g for 10 min. Pellets were resuspended in Tris Buffer, centrifuged as above and resuspended n 200 volumes of binding assay buffer (50 mM Tris HCl, pH 7.7 at 25° C., 5 mM dithiothriethel, 0.1 mM bacitracin, 1.2 mM phenylmethane sulfonyl fluoride and 0.5 mM o-phenanthroline). […] The supernatant was aspirated and discarded, pellets were counted with a Beckman gamma 5000.

[2] = target: CCK receptor; assay: 125I-CCK-33 receptor binding (pancreas or brain preparation not given); details: concentration dependent inhibition; tissue (rat pancreas or guinea pig brain) not stated; read-out: IC50, inhibition of specific 125I-CCK-33 binding
Experimental: The biological activity of the compounds of Formula I have been evaluated using an ^125 I-CCK receptor binding assay and in vitro isolated tissue preparations.
as §1
as §2, with “o-phenanthroline). For the binding assay, 25 μl of buffer (for total binding) or unlabeled CCK-8 sulfate to give a final concentration of lμM (for nonspecific binding) or the compounds of Formula I (for determination inhibition of ^125 I-CCK binding) and 25 μl of ^125 I-CCK-33 (30,000-40,000 cpm) were added to 450 μl of the membrane suspensions in microfuge tubes. All assays were run in duplicate or triplicate.” for “o-phenanthroline).”, “5000. […]” for “5000.”
Male Hartley guinea pigs (300-500 g) were sacrificed by decapitation and the brains were removed and placed in ice-cold 50 mM, Tris HCl plus 7.58 g/l Tritma-7.4 (pH 7.4 at 25° C.) Cerebral cortex was dissected and used as a receptor source. […] The supernatant was aspirated and discarded, pellets were counted with a Beckman gamma 5000.

[3] = test system: guinea pig gall bladder; assay: CCK induced contraction, isolated guinea pig gall bladder; parameters: species or system guinea pig (male Hartley); details: at 26 μM
Experimental: Male Hartley guinea pigs (400-600 g) were sacrificed by decapitation. The whole gall bladder was dissected free from adjacent tissues and cut into two equal halves. The gall bladder strips were suspended along the axis of bile duct in 5 ml organ bath under 1 g tension. The organ bath contained a Kreb's bicarbonate solution (NaCl 118 mM, KCl 4.75 mM, CaCl 2.54 mM, KH2 PO4 1.19 mM, Mg SO4 1.2 mM, NaHCO3 25 mM and dextrose 11 mM) maintained at 32° C. and bubbled with 95% O2 and 5% CO2. Isometric contractions were recorded using Statham (60 g; 0.12 mm) strain gauges and a Hewlett-Packard (77588) recorder. The tissues were washed every 10 minutes for 1 hr to obtain equilibrium prior to the beginning of the study. CCK-8 was added cumulatively to the baths and EC50 's determined using egression analysis. After washout (every 10 minutes for 1 hr), the compound of Formula I was added at least 5 minutes before the addition of CCK-8 and the EC50 of CCK-8 in the presence of the compound of Formula I similarly determined.

[4] = test system: guinea pig ileum; assay: CCK induced contraction, isolated longitudinal muscle of guinea pig ileum; parameters: species or system guinea pig (male Hartley); details: at 4.2 μM
Experimental: Longitudinal muscle strips with attached nerve plexus were prepared as described previously (Brit J. Pharmac. 23: 356-363, 1964; J. Physiol. 194: 13-33, 1969). Male Hartley guinea pigs were decapitated and the ileum was removed (10 cm of the terminal ileum was discarded and the adjacent 20 cm piece was used). A piece (10 cm) of the ileum was stretched on a glass pipette. Using a cotton applicator to stroke tangently away from the mesentery attachment at one end, the longitudinal muscle was separated from the underlying circular muscle. The longitudinal muscle was then tied to a thread and by gently pulling, stripped away from the entire muscle. A piece of approximately 2 cm was suspended in 5 ml organ bath containing Krebs solution and bubbled with 95% O2 and 5% CO2 at 37° C. under 0.5 g tension. CCK-8 was added cumulatively to the baths and EC50 values in the presence and absence of compounds of Formula I determined as described in the gall bladder protocol (above).

Structure (SMILES)	effect on the 125I-CCK receptor binding assay [1]	IC50 [2] [nM]	further results
c1cnc2c(c1)ccc1cccnc12 [o-phenanthroline]	no effect	–	–
COC(=O)CN1C(=O)C(NC(CCc2ccccc2)C(=O)OC)CCc2ccccc21 (racemic) [1-Carbomethoxymethyl-3-(1-carbomethoxy-3-phenyl-1-propyl)aminohomodihydrocarbostyril]	–	10000	–
CCOC(=O)CN1C(=O)C(NC(CCc2ccccc2)C(=O)OCC)CCc2ccccc21 (racemic) [1-Carboethoxymethyl-3-(1-carboethoxy-3-phenyl-1-propyl)-amino homodihydrocarbostyril]	–	–	effect on maximal responses to CCK [3]: without reducing maximal responses; shift of CCK dose response [3]: about 10 times
CCOC(=O)C(CCc1c[nH]c2ccccc12)NC1CCc2ccccc2N(CC(=O)OC(C)(C)C)C1=O (stereo not drawn) [1-t-Butoxycarbonylmethyl-3-(1-carboethoxy-3-(3)indolyl-1-propyl)amino homodihydrocarbostyril]	–	400	effect on maximal responses to CCK [4]: without affecting maximal responses; shift of CCK dose response to the right [4]: approximately 2.6 fold
CCOC(=O)C(CCc1ccccc1)NC1CCc2ccccc2N(CC(=O)OC(C)(C)C)C1=O (stereo not drawn) [1-t-Butoxycarbonylmethyl-3-(1-carboethoxy-3-phenyl-1-propyl]-amino homodihydrocarbostyril]	–	2400	–
O=S(=O)(F)Cc1ccccc1 [phenylmethane sulfonyl fluoride]	no effect	–	–
